These results are taken from paper PMC3192245 (Proteins, 2011).

The assay deals with AtOPR3 (Arabidopsis thaliana, UniProt Q9FUP0). Put plainly: X-ray crystal structure, […] Å. The assay is classed as binding. As to conditions: ternary complex with 8-iso PGA1; one FMN per monomer.
Sequence of AtOPR3 (Q9FUP0 whole entry): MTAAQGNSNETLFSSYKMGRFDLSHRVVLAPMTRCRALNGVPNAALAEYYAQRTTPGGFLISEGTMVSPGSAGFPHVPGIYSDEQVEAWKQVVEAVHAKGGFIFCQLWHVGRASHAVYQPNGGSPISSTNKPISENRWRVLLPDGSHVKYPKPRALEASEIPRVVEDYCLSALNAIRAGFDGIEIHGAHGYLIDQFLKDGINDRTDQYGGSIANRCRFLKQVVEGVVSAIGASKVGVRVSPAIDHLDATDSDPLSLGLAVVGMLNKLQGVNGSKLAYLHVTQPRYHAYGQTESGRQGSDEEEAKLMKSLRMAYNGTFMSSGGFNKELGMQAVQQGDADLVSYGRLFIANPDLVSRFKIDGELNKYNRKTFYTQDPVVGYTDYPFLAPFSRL

Consider `Cc1cc2nc3c(=O)[nH]c(=O)nc-3n(C[C@H](O)[C@H](O)[C@H](O)COP(=O)(O)O)c2cc1C` [FMN], for which the “X-ray crystal structure, 2.6 Å” value is “each AtOPR3 monomer contains one FMN and one 8-iso PGA1 molecule”.
